Reference: ChEMBL document CHEMBL5380794, “Discovery of a Potent and Selective STAT5 PROTAC Degrader with Strong Antitumor Activity In Vivo in Acute Myeloid Leukemia” (J Med Chem, 2023)
Activity calls are given as the source filed them. The calls are words filed in the database; no cut-off is given here.

Columns and labels:
MV4-11 [1] = experiment: Antiproliferative activity against human MV4-11 cells assessed as cell growth inhibition measured for 4 days by celltiter-glo assay; conditions: MV4-11, 96 h
[2] = Apparent volume of distribution in SCID mouse at 150 mg/kg, ip; type: ADME, organism-based; conditions: in vivo
MV4-11 [3] = experiment: Antitumor activity against human MV4-11 cells xenografted in SCID mouse assessed as tumor growth inhibition at 200 mg/kg, ip administered 5 days a week for 3 weeks; type: functional; conditions: MV4-11, 504 h, read-out: TGI
[4] = Antiproliferative activity against human Kasumi-3 cells assessed as cell growth inhibition measured for 4 days by celltiter-glo assay; conditions: Kasumi-3, 96 h
MV4-11 [5] = experiment: Effect on STAT1 level in human MV4-11 cells upto 5 uM measured for 18 hrs by Western blot analysis; type: functional, cell-based
MV4-11 [6] = experiment: Effect on STAT2 level in human MV4-11 cells upto 5 uM measured for 18 hrs by Western blot analysis; type: functional, cell-based
[7] = Antiproliferative activity against human SKNO-1 cells assessed as maximal cell growth inhibition measured for 4 days by celltiter-glo assay relative to control; type: functional; conditions: time 4 day
MV4-11 [8] = experiment: Antiproliferative activity against human MV4-11 cells assessed as maximal cell growth inhibition measured for 4 days by celltiter-glo assay relative to control; type: functional; conditions: time 4 day
RS4-11 = experiment: Antiproliferative activity against human RS4-11 cells assessed as maximal cell growth inhibition measured for 4 days by celltiter-glo assay relative to control; type: functional; conditions: time 4 day
MV4-11 [9] = experiment: Effect on STAT3 level in human MV4-11 cells upto 5 uM measured for 18 hrs by Western blot analysis; type: functional, cell-based
[10] = In vivo induction of degradation of STAT5 in human MV4-11 cells xenografted in SCID mouse assessed as reduction in STAT5 levels at 150 mg/kg, ip measured at 24 hrs by immunoblotting analysis; type: functional; parameters: scale not given: the % may be the effect or the level left
HL-60 = experiment: Antiproliferative activity against human HL-60 cells assessed as cell growth inhibition measured for 4 days by celltiter-glo assay; conditions: HL-60, 96 h
STAT5A/STAT5B [11] = molecular target: T1, STAT5A/STAT5B (Homo sapiens, UniProt P42229+P51692); experiment: Induction of STAT5A/5B degradation in human OCI-M2 cells measured for 18 hrs by immunoblotting analysis; type: cell-based
T1 sequence (P42229 whole entry): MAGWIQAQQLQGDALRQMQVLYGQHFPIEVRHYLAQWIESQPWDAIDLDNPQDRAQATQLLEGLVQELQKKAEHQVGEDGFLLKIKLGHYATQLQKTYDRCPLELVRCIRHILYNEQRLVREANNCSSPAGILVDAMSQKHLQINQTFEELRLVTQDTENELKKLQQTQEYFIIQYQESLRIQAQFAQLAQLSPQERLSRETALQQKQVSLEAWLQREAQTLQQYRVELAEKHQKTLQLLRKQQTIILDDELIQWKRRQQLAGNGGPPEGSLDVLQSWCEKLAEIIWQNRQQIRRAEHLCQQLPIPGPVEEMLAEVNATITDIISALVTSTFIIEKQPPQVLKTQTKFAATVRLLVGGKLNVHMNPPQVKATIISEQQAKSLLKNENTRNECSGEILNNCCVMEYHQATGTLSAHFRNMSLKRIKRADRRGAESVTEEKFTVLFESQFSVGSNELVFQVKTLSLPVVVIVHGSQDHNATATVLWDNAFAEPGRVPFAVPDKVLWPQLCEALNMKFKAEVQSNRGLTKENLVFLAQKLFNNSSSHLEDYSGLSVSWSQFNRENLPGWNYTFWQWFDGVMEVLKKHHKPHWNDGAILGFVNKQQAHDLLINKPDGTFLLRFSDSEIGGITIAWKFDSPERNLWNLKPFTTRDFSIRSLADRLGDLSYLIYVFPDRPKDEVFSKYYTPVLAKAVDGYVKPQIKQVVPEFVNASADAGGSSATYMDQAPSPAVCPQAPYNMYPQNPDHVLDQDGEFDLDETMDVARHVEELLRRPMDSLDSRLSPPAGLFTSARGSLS
T1 sequence (P51692 whole entry): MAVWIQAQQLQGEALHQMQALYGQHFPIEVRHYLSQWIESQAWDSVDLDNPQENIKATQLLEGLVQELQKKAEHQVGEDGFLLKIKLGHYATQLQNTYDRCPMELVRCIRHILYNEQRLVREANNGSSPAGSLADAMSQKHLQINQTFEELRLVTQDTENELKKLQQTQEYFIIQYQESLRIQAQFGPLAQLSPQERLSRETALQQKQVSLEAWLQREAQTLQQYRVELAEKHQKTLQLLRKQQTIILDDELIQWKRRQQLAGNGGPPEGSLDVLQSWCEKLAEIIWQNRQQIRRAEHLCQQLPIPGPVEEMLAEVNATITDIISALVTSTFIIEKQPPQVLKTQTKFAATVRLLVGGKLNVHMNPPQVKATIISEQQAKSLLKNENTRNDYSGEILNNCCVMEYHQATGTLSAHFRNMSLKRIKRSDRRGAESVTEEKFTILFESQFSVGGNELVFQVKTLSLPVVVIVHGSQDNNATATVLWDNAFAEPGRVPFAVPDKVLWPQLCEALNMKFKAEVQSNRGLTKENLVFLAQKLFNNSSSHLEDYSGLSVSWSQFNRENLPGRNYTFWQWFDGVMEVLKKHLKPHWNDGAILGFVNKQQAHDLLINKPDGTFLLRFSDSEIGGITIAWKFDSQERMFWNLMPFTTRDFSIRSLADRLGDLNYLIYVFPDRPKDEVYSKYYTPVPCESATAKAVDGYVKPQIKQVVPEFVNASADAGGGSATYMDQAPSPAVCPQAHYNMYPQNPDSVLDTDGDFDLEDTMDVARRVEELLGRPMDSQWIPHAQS

[12] = Toxicity in SCID mouse assessed as body weight loss at 50 to 200 mg/kg, ip administered 5 days a week for 3 weeks; type: organism-based; conditions: in vivo, 504 h, dose 50-200 mg/kg
MV4-11 [13] = experiment: Antitumor activity against human MV4-11 cells xenografted in SCID mouse assessed as tumor growth inhibition at 50 mg/kg, ip administered 5 days a week for 3 weeks; type: functional; conditions: MV4-11, 504 h, read-out: TGI
SKNO-1 = experiment: Effect on STAT2 level in human SKNO-1 cells upto 5 uM measured for 18 hrs by Western blot analysis; type: functional, cell-based
[14] = In vivo induction of degradation of STAT5 in human MV4-11 cells xenografted in SCID mouse assessed as reduction in STAT5 phosphorylation at Y694 residue at 150 mg/kg, ip measured at 1 to 24 hrs by immunoblotting analysis; type: functional; parameters: scale not given: the % may be the effect or the level left; conditions: time 1-24 hrs
MV4-11 [15] = experiment: Antitumor activity against human MV4-11 cells xenografted in SCID mouse assessed as tumor growth inhibition at 100 mg/kg, ip administered 5 days a week for 3 weeks; type: functional; conditions: MV4-11, 504 h, read-out: TGI
STAT5A/STAT5B [16] = molecular target: T1, STAT5A/STAT5B; experiment: Induction of STAT5A/5B degradation in human SKNO-1 cells measured for 18 hrs by immunoblotting analysis; type: cell-based
[17] = Antiproliferative activity against human BDCM cells assessed as maximal cell growth inhibition measured for 4 days by celltiter-glo assay relative to control; type: functional; conditions: time 4 day
MOLM-13 = experiment: Antiproliferative activity against human MOLM-13 cells assessed as cell growth inhibition measured for 4 days by celltiter-glo assay; conditions: MOLM-13, 96 h
[18] = Half life in SCID mouse at 150 mg/kg, ip; type: ADME, organism-based; conditions: in vivo

- IC50 (MV4-11 [1]): 180 nM
- Vz [2]: 2.1 L/kg
- IC50 (HL-60): > 15000 nM
- DC50 (STAT5A/STAT5B [11]): 700 nM
- DC50 (STAT5A/STAT5B [16]): 80 nM
- IC50 (MOLM-13): > 15000 nM
- half-life [18]: 1.9 h
Compound: CN(CCCC#Cc1cccc2c1CN(C1CCC(=O)NC1=O)C2=O)C(=O)CCN(C(=O)[C@@H]1CCCN1C(=O)[C@@H](NC(=O)c1cc2cc(C(F)(F)P(=O)(O)O)ccc2s1)C(C)(C)C)c1ccc(-c2nccs2)cc1 (some centres not stated)
- inhibition in vivo at 200 mg/kg (MV4-11 [3]): 80%
- IC50 [4]: 350 nM
- Activity (MV4-11 [5]): inactive
- Activity (MV4-11 [6]): inactive
- Imax [7]: 64%
- Imax (MV4-11 [8]): 65%
- Imax (RS4-11): <5%
- Activity (MV4-11 [9]): inactive
- Activity [10]: >70%
- Activity [12]: Non-Toxic
- inhibition in vivo at 50 mg/kg (MV4-11 [13]): 50%
- Activity (SKNO-1): inactive
- Activity [14]: >95%
- inhibition in vivo at 100 mg/kg (MV4-11 [15]): 60%
- Imax [17]: <5%
